Experimental data from paper PMC6274388, “Deoxyelephantopin from Elephantopus scaber Inhibits HCT116 Human Colorectal Carcinoma Cell Growth through Apoptosis and Cell Cycle Arrest” (Molecules, 2016).

How the values were obtained:
[1] = test system: HCT116 human colorectal carcinoma cells; assay: MTT cytotoxicity assay on HCT116 cells; type: cell-based; conditions: for IC50: Homo sapiens, HCT-116, HCT116, MTT; for cell viability: HCT116, 72 h, 0.39–25.0 µg/mL
Description: (§1) HCT116 human colorectal cancer cells and CCD841-CoN normal cells were obtained from the American Type Culture Collection (ATCC, Manassas, VA, USA). HCT116 cells and CCD841-CoN normal cells were cultured in RPMI-1640 and EMEM media respectively, with 10% v/v heat-inactivated fetal bovine serum (FBS), 100 µg/mL penicillin streptomycin and 50 µg/mL amphotericin B at 37 °C in 5% CO2 incubator.
(§2) To investigate the cytotoxic effect of each fraction and compounds, the MTT assay was utilized. Cells were seeded and exposed to different concentrations (0.38–25 µg/mL) of each fraction which was dissolved in DMSO. 5-fluorouracil (5-FU) was used as positive control. Untreated cells (negative control) were treated with vehicle dimethyl sulfoxide (DMSO). The final concentration of DMSO was below 0.5% v/v in all experiments. MTT (5 mg/mL) was then added to each well after treatment and incubated for another 4 h at 37 °C. Subsequently, the medium was discarded and replaced by 150 µL of DMSO to dissolve the formazan crystals followed by quantified at 570 nm and 650 nm as a background using a microplate reader (Asys UVM340, Biochrom, Eugendorf, Austria). The percentage of cell viability was calculated according to the following equation: Cell viability percentage (%) = (Absorbance of treated cells/absorbance of untreated cells) × 100%.

[2] = test system: CCD841CoN normal colon cells; assay: MTT cytotoxicity assay on CCD841CoN normal colon cells; type: cell-based, human; conditions: for IC50: Homo sapiens, CCD-841CoN, MTT, 72 h
Description: as §1, §2

[3] = test system: cleaved PARP; assay: Western blot, cleaved PARP in HCT116 cells; type: cell-based, human; conditions: HCT116, 0.75, 1.5 and 3.0 µg/mL, 24 h
Description: (§3) 1 × 10^6 HCT116 cells were plated in 60 mm^2 culture dishes and exposed to varying concentrations of DET (0.75, 1.5 and 3.0 µg/mL) for 24 h. The cells were collected, resuspended in cold RIPA buffer containing protease and phosphatase inhibitors and placed on ice for 5 min followed by centrifugation at 14,000× g for 15 min at 4 °C. 25 μg of total proteins was separated on the 12% SDS-PAGE gels and transferred onto nitrocellulose membranes, followed by the blocking using skim milk/bovine serum albumin for 1 h. Membranes were incubated with primary antibodies (cleaved PARP, cleaved caspase-3, p-p53, p21, CDK2, CDK4, CDK 6, cyclin D1, cyclin A2, cyclin B, cyclin E and GAPDH, Cell Signaling) at 4 °C overnight. Subsequently, the membranes were washed with TBST (0.05% Tween 20 in TBS) and incubated with corresponding anti-mouse/rabbit immunoglobulin G-horseradish peroxidase-conjugated secondary antibody (Cell Signaling, Danvers, MA, USA) at room temperature for 1 h. Then, the membranes were washed with TBST. The bands was detected by using enhanced chemiluminescence (ECL) detection kit (BioRad, Hercules, CA, USA) and visualized using gel documentation system. Protein bands were analyzed quantitatively and qualitatively with Vilber Lourmart.

[4] = test system: CDK6; assay: Western blot, CDK6 in HCT116 cells; type: cell-based, human; conditions: HCT116, 0.75, 1.5 and 3.0 µg/mL, 24 h
Description: as §3

[5] = test system: HCT116 cells; assay: Cell cycle distribution by PI flow cytometry; type: cell-based, human; conditions: 24 h
Description: 1 × 10^6 HCT116 cells were plated in 60 mm^2 culture dishes and exposed to different concentrations of DET (0.75, 1.5 and 3.0 µg/mL) for 24 h. The cells were harvested and centrifuged at 300× g at room temperature. The cells were then resuspended in 1 mL of buffer solution followed by centrifugation and washing with buffer solution. Subsequently, 250 µL of Solution A (trypsin buffer) was added and incubated for 10 min, followed by addition of 100 µL of Solution B (trypsin inhibitor and RNase buffer) and incubated at room temperature for 10 min. 200 µL of cold PI solution was added, gently mixed and incubated on ice for 10 min in the dark. Finally, samples were assessed by using flow cytometry (BD, San Jose, CA, USA).

[6] = test system: HCT116 cells; assay: Nuclear morphological changes, Hoechst 33342/PI staining; type: cell-based, human; conditions: HCT116, 0.75, 1.5 and 3.0 µg/mL, 24 h, dose-dependent
Description: 1 × 10^6 HCT116 cells were plated in 60 mm^2 culture dishes and treated with increasing concentrations of DET (0.75, 1.5 and 3.0 µg/mL) while negative control was treated with the vehicle DMSO for 24 h. Then, the cells were collected, washed with PBS and proceed to staining with Hoechst 33342 (40 µg/mL) and propidium iodide solution (10 µg/mL) at room temperature in the dark for 30 min. The cells were then examined by inverted fluorescence microscopy (DM1600B, Leica, Wetzlar, Germany).

[7] = test system: CDK2; assay: Western blot, CDK2 in HCT116 cells; type: cell-based, human; conditions: HCT116, 0.75, 1.5 and 3.0 µg/mL, 24 h
Description: as §3

[8] = test system: cyclin B1; assay: Western blot, cyclin B1 in HCT116 cells; type: cell-based, human; conditions: HCT116, 0.75, 1.5 and 3.0 µg/mL, 24 h
Description: as §3

[9] = test system: CDK4; assay: Western blot, CDK4 in HCT116 cells; type: cell-based, human; conditions: HCT116, 0.75, 1.5 and 3.0 µg/mL, 24 h
Description: as §3

[10] = test system: HCT116 cells; assay: Externalization of phosphatidylserine, Annexin V-FITC/PI staining, flow cytometry; type: cell-based, human; conditions: 24 h
Description: 1 × 10^6 HCT116 cells were plated in 60 mm^2 culture dishes and exposed to different concentrations of DET (0.75, 1.5 and 3.0 µg/mL) for 24 h. Subsequently, cells were washed with PBS, resuspended in 1× Annexin V binding buffer and stained with Annexin V-fluorescein-isothiocyanate (FITC) (BD) and propidium iodide (PI) in the dark at room temperature for 15 min. 1× binding buffer was then added into each tube. The apoptotic and necrotic cell populations were then examined by flow cytometry. The fluorescence intensity was detected in FL1-A (x-axis) and FL2-A channel (y-axis).

[11] = test system: phospho-p53; assay: Western blot, phospho-p53 in HCT116 cells; type: cell-based, human; conditions: HCT116, 0.75, 1.5 and 3.0 µg/mL, 24 h
Description: as §3

[12] = test system: cyclin E2; assay: Western blot, cyclin E2 in HCT116 cells; type: cell-based, human; conditions: HCT116, 0.75, 1.5 and 3.0 µg/mL, 24 h
Description: as §3

[13] = test system: cyclin A2; assay: Western blot, cyclin A2 in HCT116 cells; type: cell-based, human; conditions: HCT116, 0.75, 1.5 and 3.0 µg/mL, 24 h
Description: as §3

[14] = test system: cyclin D1; assay: Western blot, cyclin D1 in HCT116 cells; type: cell-based, human; conditions: HCT116, 0.75, 1.5 and 3.0 µg/mL, 24 h
Description: as §3

[15] = test system: p21; assay: Western blot, p21 in HCT116 cells; type: cell-based, human; conditions: HCT116, 0.75, 1.5 and 3.0 µg/mL, 24 h
Description: as §3

[16] = test system: cleaved caspase-3; assay: Western blot, cleaved caspase-3 in HCT116 cells; type: cell-based, human; conditions: HCT116, 0.75, 1.5 and 3.0 µg/mL, 24 h
Description: as §3

[17] = 72 h, value in brackets after the µg/mL value
[18] = CCD841-CoN normal cell line, mean ± S.E. (n = 9)

O=c1[nH]cc(F)c(=O)[nH]1 [5-Fluorouracil, 5-fluorouracil, reference compound]
IC50 ([1]; 72 h, mean ± S.E. (n = 9)): 0.73 ± 0.02 µg/mL
IC50 [1, 17]: 5 µM
IC50 [2, 18]: > 25 µg/mL

C=C(C)C(=O)O[C@H]1CC2=C[C@H](C/C(C)=C/[C@H]3OC(=O)C(=C)[C@H]13)OC2=O [Isodeoxyelephantopin, isodeoxyelephantopin]
cell viability [1]: dose-dependent reduction of cell viability
IC50 ([1]; 72 h, mean ± S.E. (n = 9)): 0.88 ± 0.02 µg/mL
IC50 [1, 17]: 2.56 µM

C=C(C)C(=O)O[C@H]1CC2=C[C@@H](C/C(C)=C/[C@H]3OC(=O)C(=C)[C@H]13)OC2=O [Deoxyelephantopin, deoxyelephantopin]
cleaved PARP protein expression [3]: dose-dependent upregulation
CDK6 protein expression [4]: remain constant
cells in the S phase ([5]; HCT116, 1.5 µg/mL): 28.17% ± 0.23%
cells in the S phase ([5]; HCT116, 3.0 µg/mL): 29.25% ± 0.21%
cell cycle progression ([5]; HCT116, 0.75, 1.5 and 3.0 µg/mL): cell cycle arrest at S phase
apoptotic morphological changes (chromatin condensation, cell shrinkage, DNA fragmentation) [6]: apoptosis-inducing effect
CDK2 protein expression [7]: significant downregulation
cyclin B1 protein expression [8]: significant downregulation
CDK4 protein expression [9]: significant downregulation
accumulation of apoptotic cells compared to untreated control ([10]; HCT116, 0.75 μg/mL): significant accumulation of apoptotic cells
proportion of apoptotic cells (early and late apoptotic phases) ([10]; HCT116, 3.0 µg/mL): 63.63% ± 2.03%
necrotic cell death ([10]; HCT116, 0.75–3.0 µg/mL): did not significantly induce necrotic cell death
viability at 0.75 µg/mL ([10]; Homo sapiens, HCT-116, HCT116, 0.75 μg/mL, representative plot, read-out: Q1-LL cells (annexin−/PI−, viable)): 74.8%
viability at 1.5 µg/mL ([10]; Homo sapiens, HCT-116, HCT116, 1.50 μg/mL, representative plot, read-out: Q1-LL cells (annexin−/PI−, viable)): 59.8%
viability at 3 µg/mL ([10]; Homo sapiens, HCT-116, HCT116, 3.00 μg/mL, representative plot, read-out: Q1-LL cells (annexin−/PI−, viable)): 34.1%
phospho-p53 expression level [11]: upregulated
cyclin E2 protein expression [12]: significant downregulation
cyclin A2 protein expression [13]: significant downregulation
cyclin D1 protein expression [14]: significant downregulation
cell viability [1]: dose-dependent reduction of cell viability
IC50 ([1]; 24 h): 2.36 ± 0.02 µg/mL
IC50 ([1]; 48 h): 0.9 ± 0.02 µg/mL
IC50 ([1]; 72 h, mean ± S.E. (n = 9)): 0.73 ± 0.01 µg/mL
IC50 [1, 17]: 2.12 µM
IC50 [2, 18]: 21.7 ± 0.92 µg/mL
IC50 ([2]; CCD841CoN normal cells, value in brackets after the µg/mL value): 60 µM
difference in cytotoxicity, CCD841CoN normal cells compared to HCT116 cells ([2]; IC50 at 72 h): 30 fold
p21 expression level [15]: upregulated
cleaved caspase-3 protein expression [16]: dose-dependent upregulation
